What was measured:
L1210 [1] = test: Antileukemic activity against L1210 cells in culture at a concentration of 10e-4 M; Inactive; type: functional, cell-based, Mus musculus
L1210 [2] = test: Antileukemic activity against L1210 cells in culture at a concentration of 10e-4 M; Active; type: functional, cell-based, Mus musculus
L1210 [3] = test: Antileukemic activity against L1210 cells in culture at a concentration of 5 X 10e-4 M; extremely weak; type: functional, cell-based; settings: Mus musculus

Row | Structure (SMILES) | IC50 (L1210 [1]) | also measured
1 | C[C@@H]1O[C@@H](n2cnc3c(N)ncnc32)[C@H](O)[C@H](O)[C@@H]1O | Not Active | 
2 | C[C@H]1O[C@@H](n2cnc3c(N)ncnc32)[C@H](O)[C@@H](O)[C@H]1O |  | IC50 (L1210 [2]): Active
3 | Nc1ncnc2c1ncn2C1OCC(O)C(O)C1O (stereo unspecified) |  | inhibition (L1210 [3]): Extremely weak
4 | Nc1ncnc2c1ncn2C1OC(CO)C(O)C(O)C1O (stereo unspecified) | Not Active | 

Further lines, with some results ahead:

Row | IC50 (L1210 [1]) | Structure (SMILES) | also measured
5 | Not Active | C[C@H]1O[C@@H](n2cnc3c(N)ncnc32)[C@H](O)[C@@H](O)[C@@H]1O | 
6 | Not Active | C[C@@H]1O[C@@](CO)(n2cnc3c(N)ncnc32)[C@@H](O)[C@@H]1O | 
